Laboratory results taken from ChEMBL document CHEMBL3232998, “Spiromastixones A-O, antibacterial chlorodepsidones from a deep-sea-derived Spiromastix sp. fungus” (J Nat Prod, 2014).
Values after ≈ are worked out from the molar mass of the structure shown.

Columns and labels:
[1] = system: Staphylococcus epidermidis; test: Antibacterial activity against methicillin-sensitive Staphylococcus epidermidis 12-6 after 18 hrs by broth microdilution method; format: functional, organism-based; conditions: 12-6, 18 h
[2] = system: Staphylococcus epidermidis; test: Antibacterial activity against methicillin-sensitive Staphylococcus epidermidis ATCC 12228 after 18 hrs by broth microdilution method; format: functional, organism-based; conditions: ATCC 12228, 18 h, read-out: IC50
Staphylococcus aureus [3] = test: Antibacterial activity against methicillin-sensitive Staphylococcus aureus ATCC 29213 after 18 hrs by broth microdilution method; format: functional, organism-based; conditions: ATCC 29213, 18 h, read-out: IC50
Enterococcus faecium [4] = test: Antibacterial activity against vancomycin-resistant Enterococcus faecium ATCC 700221 after 18 hrs by broth microdilution method; format: functional, organism-based; conditions: ATCC 700221, 18 h, read-out: IC50
Klebsiella pneumoniae [5] = test: Antibacterial activity against extended spectrum beta-lactamase-deficient Klebsiella pneumoniae 12-4 after 18 hrs by broth microdilution method; format: functional, organism-based; conditions: 12-4, 18 h
Enterococcus faecium [6] = test: Antibacterial activity against vancomycin-sensitive Enterococcus faecium 12-3 after 18 hrs by broth microdilution method; format: functional, organism-based; conditions: 12-3, 18 h, read-out: IC50
Escherichia coli [7] = test: Antibacterial activity against extended spectrum beta-lactamase-deficient Escherichia coli ATCC 25922 after 18 hrs by broth microdilution method; format: functional, organism-based; conditions: ATCC 25922, 18 h, read-out: IC50
Staphylococcus aureus [8] = test: Antibacterial activity against methicillin-resistant Staphylococcus aureus 12-33 after 18 hrs by broth microdilution method; format: functional, organism-based; conditions: 12-33, 18 h, read-out: IC50
[9] = system: Staphylococcus epidermidis; test: Antibacterial activity against methicillin-resistant Staphylococcus epidermidis 12-8 after 18 hrs by broth microdilution method; format: functional, organism-based; conditions: 12-8, 18 h, read-out: IC50
Staphylococcus aureus [10] = test: Antibacterial activity against Staphylococcus aureus ATCC 29213 after 18 hrs by broth microdilution method; format: functional; conditions: ATCC 29213, 18 h
Staphylococcus aureus [11] = test: Antibacterial activity against methicillin-resistant Staphylococcus aureus ATCC 33591 after 18 hrs by broth microdilution method; format: functional, organism-based; conditions: ATCC 33591, 18 h, read-out: IC50
Klebsiella pneumoniae [12] = test: Antibacterial activity against extended spectrum beta-lactamase producing Klebsiella pneumoniae ATCC 700603 after 18 hrs by broth microdilution method; format: functional, organism-based; conditions: ATCC 700603, 18 h
Escherichia coli [13] = test: Antibacterial activity against Escherichia coli ATCC 25922 after 18 hrs by broth microdilution method; format: functional; conditions: ATCC 25922, 18 h
Klebsiella pneumoniae [14] = test: Antibacterial activity against NDM-1 producing Klebsiella pneumoniae ATCC BAA-2146 after 18 hrs by broth microdilution method; format: functional, organism-based; conditions: ATCC BAA-2146, 18 h, read-out: IC50
Enterococcus faecalis [15] = test: Antibacterial activity against vancomycin-sensitive Enterococcus faecalis 12-5 after 18 hrs by broth microdilution method; format: functional, organism-based; conditions: 12-5, 18 h, read-out: IC50
Enterococcus faecium [16] = test: Antibacterial activity against vancomycin-resistant Enterococcus faecium 12-1 after 18 hrs by broth microdilution method; format: functional, organism-based; conditions: 12-1, 18 h, read-out: IC50
Staphylococcus aureus [17] = test: Antibacterial activity against methicillin-sensitive Staphylococcus aureus 15 after 18 hrs by broth microdilution method; format: functional, organism-based; conditions: Staphylococcus aureus, 15, 18 h; read-out: IC50
Enterococcus faecalis [18] = test: Antibacterial activity against vancomycin-resistant Enterococcus faecalis 09-9 after 18 hrs by broth microdilution method; format: functional, organism-based; conditions: 09-9, 18 h, read-out: IC50
Escherichia coli [19] = test: Antibacterial activity against extended spectrum beta-lactamase-deficient Escherichia coli 12-14 after 18 hrs by broth microdilution method; format: functional, organism-based; conditions: 12-14, 18 h, read-out: IC50
Enterococcus faecalis [20] = test: Antibacterial activity against vancomycin-sensitive Enterococcus faecalis ATCC 29212 after 18 hrs by broth microdilution method; format: functional, organism-based; conditions: ATCC 29212, 18 h, read-out: IC50
Bacillus thuringiensis = test: Antibacterial activity against Bacillus thuringiensis SCSIO BT01 after 18 hrs by broth microdilution method; format: functional; conditions: SCSIO BT01, 18 h
Klebsiella pneumoniae [21] = test: Antibacterial activity against extended spectrum beta-lactamase-deficient Klebsiella pneumoniae 7 after 18 hrs by broth microdilution method; format: functional, organism-based; conditions: Klebsiella pneumoniae, 7, 18 h; read-out: IC50
Klebsiella pneumoniae [22] = test: Antibacterial activity against extended spectrum beta-lactamase producing Klebsiella pneumoniae 12-8 after 18 hrs by broth microdilution method; format: functional, organism-based; conditions: 12-8, 18 h, read-out: IC50
Bacillus subtilis = test: Antibacterial activity against Bacillus subtilis SCSIO BS01 after 18 hrs by broth microdilution method; format: functional; conditions: SCSIO BS01, 18 h
Enterococcus faecalis [23] = test: Antibacterial activity against vancomycin-resistant Enterococcus faecalis ATCC 51299 after 18 hrs by broth microdilution method; format: functional, organism-based; conditions: ATCC 51299, 18 h, read-out: IC50
Staphylococcus aureus [24] = test: Antibacterial activity against methicillin-sensitive Staphylococcus aureus 12-28 after 18 hrs by broth microdilution method; format: functional, organism-based; conditions: 12-28, 18 h
Escherichia coli [25] = test: Antibacterial activity against extended spectrum beta-lactamase producing Escherichia coli 12-15 after 18 hrs by broth microdilution method; format: functional, organism-based; conditions: 12-15, 18 h, read-out: IC50
Escherichia coli [26] = test: Antibacterial activity against extended spectrum beta-lactamase-deficient Escherichia coli 1515 after 18 hrs by broth microdilution method; format: functional, organism-based; conditions: Escherichia coli, 1515, 18 h
Staphylococcus aureus [27] = test: Ratio of levofloxacin IC50 to compound IC50 for methicillin-resistant Staphylococcus aureus 12-33 after 18 hrs by broth microdilution method; format: functional

| Structure (SMILES) | IC50 [1] | MIC [2] | MIC (Staphylococcus aureus [3]) | MIC (Enterococcus faecium [4]) | IC50 (Klebsiella pneumoniae [5]) | MIC (Enterococcus faecium [6]) | MIC (Escherichia coli [7]) | MIC (Staphylococcus aureus [8]) | MIC [9] | MIC (Staphylococcus aureus [10]) | MIC (Staphylococcus aureus [11]) | IC50 (Klebsiella pneumoniae [12]) | MIC (Escherichia coli [13]) | MIC (Klebsiella pneumoniae [14]) | MIC (Enterococcus faecalis [15]) | MIC (Enterococcus faecium [16]) | MIC (Staphylococcus aureus [17]) | MIC (Enterococcus faecalis [18]) | MIC (Escherichia coli [19]) | MIC (Enterococcus faecalis [20]) | further results |
| --- | --- | --- | --- | --- | --- | --- | --- | --- | --- | --- | --- | --- | --- | --- | --- | --- | --- | --- | --- | --- | --- |
| CCCc1cc(O)cc2c1Oc1c(Cl)c(O)c(Cl)c(CCC)c1C(=O)O2 | 32 µM | 32 µM (≈ 12.7 µg/mL) | 64 µM (≈ 25.4 µg/mL) | > 256 µM | > 256 µM | > 256 µM | > 256 µM | 128 µM (≈ 50.8 µg/mL) | 64 µM (≈ 25.4 µg/mL) | 4 µg/mL (≈ 10.1 µM) | 32 µM (≈ 12.7 µg/mL) | > 256 µM | > 128 µg/mL | > 256 µM | > 256 µM | > 256 µM | 64 µM (≈ 25.4 µg/mL) | > 256 µM | > 256 µM | > 256 µM | MIC (Bacillus thuringiensis): 2 µg/mL (≈ 5.03 µM); MIC (Klebsiella pneumoniae [21]): > 256 µM; MIC (Klebsiella pneumoniae [22]): > 256 µM; MIC (Bacillus subtilis): 4 µg/mL (≈ 10.1 µM); MIC (Enterococcus faecalis [23]): > 256 µM; IC50 (Staphylococcus aureus [24]): 128 µM; MIC (Escherichia coli [25]): > 256 µM; IC50 (Escherichia coli [26]): > 256 µM |
| CCCc1c(Cl)c(O)cc2c1Oc1c(Cl)c(O)c(Cl)c(CCC)c1C(=O)O2 | 4 µM | 2 µM (≈ 0.863 µg/mL) | 4 µM (≈ 1.73 µg/mL) | 32 µM (≈ 13.8 µg/mL) | > 256 µM | 32 µM (≈ 13.8 µg/mL) | > 256 µM | 4 µM (≈ 1.73 µg/mL) | 4 µM (≈ 1.73 µg/mL) | 2 µg/mL (≈ 4.63 µM) | 4 µM (≈ 1.73 µg/mL) | > 256 µM | > 128 µg/mL | > 256 µM | 32 µM (≈ 13.8 µg/mL) | 16 µM (≈ 6.91 µg/mL) | 4 µM (≈ 1.73 µg/mL) | 32 µM (≈ 13.8 µg/mL) | > 256 µM | 32 µM (≈ 13.8 µg/mL) | MIC (Bacillus thuringiensis): 1 µg/mL (≈ 2.32 µM); MIC (Klebsiella pneumoniae [21]): > 256 µM; MIC (Klebsiella pneumoniae [22]): > 256 µM; MIC (Bacillus subtilis): 0.5 µg/mL (≈ 1.16 µM); MIC (Enterococcus faecalis [23]): 32 µM (≈ 13.8 µg/mL); IC50 (Staphylococcus aureus [24]): 4 µM; MIC (Escherichia coli [25]): > 256 µM; IC50 (Escherichia coli [26]): > 256 µM |
| CCCc1c(Cl)c(OC)cc2c1Oc1c(Cl)c(O)c(Cl)c(CCC)c1C(=O)O2 | 4 µM | 4 µM (≈ 1.78 µg/mL) | 8 µM (≈ 3.57 µg/mL) | 256 µM (≈ 114 µg/mL) | > 256 µM | 256 µM (≈ 114 µg/mL) | > 256 µM | 8 µM (≈ 3.57 µg/mL) | 2 µM (≈ 0.891 µg/mL) | 0.5 µg/mL (≈ 1.12 µM) | 4 µM (≈ 1.78 µg/mL) | > 256 µM | > 128 µg/mL | > 256 µM | > 256 µM | 16 µM (≈ 7.13 µg/mL) | 4 µM (≈ 1.78 µg/mL) | 256 µM (≈ 114 µg/mL) | > 256 µM | 128 µM (≈ 57.1 µg/mL) | Ratio IC50 (Staphylococcus aureus [27]): 2; MIC (Bacillus thuringiensis): 0.5 µg/mL (≈ 1.12 µM); MIC (Klebsiella pneumoniae [21]): > 256 µM; MIC (Klebsiella pneumoniae [22]): > 256 µM; MIC (Bacillus subtilis): 0.25 µg/mL (≈ 0.561 µM); MIC (Enterococcus faecalis [23]): > 256 µM; IC50 (Staphylococcus aureus [24]): 4 µM; MIC (Escherichia coli [25]): > 256 µM; IC50 (Escherichia coli [26]): > 256 µM |
| CCCc1cc(O)c(Cl)c2c1Oc1c(Cl)c(O)c(Cl)c(CCC)c1C(=O)O2 | 2 µM | 4 µM (≈ 1.73 µg/mL) | 4 µM (≈ 1.73 µg/mL) | 16 µM (≈ 6.91 µg/mL) | 128 µM | 32 µM (≈ 13.8 µg/mL) | 64 µM (≈ 27.6 µg/mL) | 8 µM (≈ 3.45 µg/mL) | 4 µM (≈ 1.73 µg/mL) | 4 µg/mL (≈ 9.27 µM) | 4 µM (≈ 1.73 µg/mL) | 256 µM | > 128 µg/mL | 256 µM (≈ 111 µg/mL) | 16 µM (≈ 6.91 µg/mL) | 16 µM (≈ 6.91 µg/mL) | 4 µM (≈ 1.73 µg/mL) | 16 µM (≈ 6.91 µg/mL) | 64 µM (≈ 27.6 µg/mL) | 16 µM (≈ 6.91 µg/mL) | Ratio IC50 (Staphylococcus aureus [27]): 2; MIC (Bacillus thuringiensis): 1 µg/mL (≈ 2.32 µM); MIC (Klebsiella pneumoniae [21]): 256 µM (≈ 111 µg/mL); MIC (Klebsiella pneumoniae [22]): 128 µM (≈ 55.3 µg/mL); MIC (Bacillus subtilis): 1 µg/mL (≈ 2.32 µM); MIC (Enterococcus faecalis [23]): 16 µM (≈ 6.91 µg/mL); IC50 (Staphylococcus aureus [24]): 8 µM; MIC (Escherichia coli [25]): 64 µM (≈ 27.6 µg/mL); IC50 (Escherichia coli [26]): 64 µM |
